Reference: ChEMBL document CHEMBL1201862, “PubChem BioAssay data set” (2004)
Each block holds one molecule with its values, some of them ahead of it. Activity calls are given as the source filed them.

Columns and labels:
Type in all cases: functional
[1] = target: Dual specificity mitogen-activated protein kinase kinase 1 (Homo sapiens, UniProt Q02750); test: Navigating the Kinome. Panel member name: MAP2K1
[2] = target: cGMP-dependent protein kinase 1 (Homo sapiens, UniProt Q13976);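 note: value from a kinome panel screen with PRKG1 as the panel member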
[3] = target: RAC-gamma serine/threonine-protein kinase (Homo sapiens, UniProt Q9Y243)
[4] = target: Tyrosine-protein kinase receptor TYRO3 (Homo sapiens, UniProt Q06418);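 note: TYRO3 value obtained as one member of a kinome-wide profiling panel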
[5] = target: Serine/threonine-protein kinase D3 (Homo sapiens, UniProt O94806);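 note: determined within a kinase panel screen, with PRKCN as the panel member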
[6] = target: Death-associated protein kinase 3 (Homo sapiens, UniProt O43293);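 note: measured as one member of a kinome-wide profiling panel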
[7] = target: Serine/threonine-protein kinase Chk2 (Homo sapiens, UniProt O96017);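 note: CHEK2 entry within a kinome-wide screening panel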
LIM domain kinase 1 = LIM domain kinase 1 (Homo sapiens, UniProt P53667); test: Navigating the Kinome. Panel member name: LIMK1
[8] = target: Serine/threonine-protein kinase pim-3 (Homo sapiens, UniProt Q86V86);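 note: value obtained as one member of a broad kinase panel profiling effort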
[9] = target: Non-receptor tyrosine-protein kinase TYK2 (Homo sapiens, UniProt P29597)
[10] = target: Hepatocyte growth factor receptor (Homo sapiens, UniProt P08581);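 note: kinase panel profiling across the kinome, with MET as the panel member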
[11] = target: MAP kinase-activated protein kinase 3 (Homo sapiens, UniProt Q16644);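 note: value comes from a kinome-wide profiling panel in which MAPKAPK3 is one of the panel members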
[12] = target: Mitogen-activated protein kinase 1 (Homo sapiens, UniProt P28482)
[13] = target: Cyclin-dependent kinase 8 (Homo sapiens, UniProt P49336); test: Navigating the Kinome. Panel member name: CDK8
[14] = target: Fibroblast growth factor receptor 3 (Homo sapiens, UniProt P22607)
[15] = target: Lymphokine-activated killer T-cell-originated protein kinase (Homo sapiens, UniProt Q96KB5);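 note: value comes from a kinase panel screen in which TOPK was one of the panel members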
[16] = target: Serine/threonine-protein kinase 3 (Homo sapiens, UniProt Q13188);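 note: measured as one member of a kinome-wide kinase panel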
Albumin = Albumin (Bos taurus, UniProt P02769); test: Counterscreen for inhibitors of T-cell receptor (TCR)-CD3 interaction: Fluorescence-based biochemical high throughput dose response assay to identify inhibitors of T-cell receptor (TCR)-CD3 interaction using a TAMRA-labeled BSA probe.
[17] = Luminescence Cell-Based Dose Retest to Confirm Inhibitors of Cancer Stem Cells. [Related pubchem assays (depositor defined):AID2717, AID2721]; settings: Homo sapiens
[18] = target: T1, Alkaline phosphatase, tissue-nonspecific isozyme (Homo sapiens, UniProt P05186); test: inhibition of tissue-nonspecific alkaline phosphatase – biochemical, dose response (AID 488882)
T1 sequence (P05186 whole entry): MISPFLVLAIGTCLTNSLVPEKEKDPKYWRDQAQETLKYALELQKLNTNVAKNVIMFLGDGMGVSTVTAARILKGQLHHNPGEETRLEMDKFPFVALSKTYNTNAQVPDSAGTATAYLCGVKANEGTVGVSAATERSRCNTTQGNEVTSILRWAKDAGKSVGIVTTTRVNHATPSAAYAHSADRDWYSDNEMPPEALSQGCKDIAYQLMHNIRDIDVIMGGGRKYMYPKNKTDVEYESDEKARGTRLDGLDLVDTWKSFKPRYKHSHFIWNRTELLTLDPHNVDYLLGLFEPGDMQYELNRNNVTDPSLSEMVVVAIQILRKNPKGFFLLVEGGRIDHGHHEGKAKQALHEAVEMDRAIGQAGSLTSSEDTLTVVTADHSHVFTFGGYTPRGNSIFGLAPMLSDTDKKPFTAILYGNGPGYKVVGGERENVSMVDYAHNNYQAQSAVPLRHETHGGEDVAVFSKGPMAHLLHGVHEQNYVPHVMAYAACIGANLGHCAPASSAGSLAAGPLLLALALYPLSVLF
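Throughout, for AC50: cells exposed to compound for roughly 70 hours or longer before luminescence read.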

Chain of Dual specificity mitogen-activated protein kinase kinase 1 (Q02750 whole entry): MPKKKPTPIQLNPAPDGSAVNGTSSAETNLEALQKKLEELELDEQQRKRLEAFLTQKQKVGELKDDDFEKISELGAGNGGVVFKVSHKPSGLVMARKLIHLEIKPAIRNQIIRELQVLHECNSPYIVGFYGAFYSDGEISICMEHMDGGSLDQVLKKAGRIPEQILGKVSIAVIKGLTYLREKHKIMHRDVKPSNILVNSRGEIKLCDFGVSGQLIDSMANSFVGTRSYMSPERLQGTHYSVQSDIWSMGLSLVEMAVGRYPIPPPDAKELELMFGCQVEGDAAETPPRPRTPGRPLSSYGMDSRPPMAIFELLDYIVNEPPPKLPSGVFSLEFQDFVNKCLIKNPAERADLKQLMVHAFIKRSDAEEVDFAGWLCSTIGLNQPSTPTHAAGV
Chain of Mitogen-activated protein kinase 1 (P28482 whole entry): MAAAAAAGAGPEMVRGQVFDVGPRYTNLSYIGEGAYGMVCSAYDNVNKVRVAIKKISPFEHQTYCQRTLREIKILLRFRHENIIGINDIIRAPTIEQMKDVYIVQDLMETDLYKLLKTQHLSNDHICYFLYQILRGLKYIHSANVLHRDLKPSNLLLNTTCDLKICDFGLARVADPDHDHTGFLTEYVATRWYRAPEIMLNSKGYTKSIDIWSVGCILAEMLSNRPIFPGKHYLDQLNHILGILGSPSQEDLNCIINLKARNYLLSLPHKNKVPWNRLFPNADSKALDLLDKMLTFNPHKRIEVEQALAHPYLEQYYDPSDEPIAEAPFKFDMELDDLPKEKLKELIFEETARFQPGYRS
Chain of Non-receptor tyrosine-protein kinase TYK2 (P29597 whole entry): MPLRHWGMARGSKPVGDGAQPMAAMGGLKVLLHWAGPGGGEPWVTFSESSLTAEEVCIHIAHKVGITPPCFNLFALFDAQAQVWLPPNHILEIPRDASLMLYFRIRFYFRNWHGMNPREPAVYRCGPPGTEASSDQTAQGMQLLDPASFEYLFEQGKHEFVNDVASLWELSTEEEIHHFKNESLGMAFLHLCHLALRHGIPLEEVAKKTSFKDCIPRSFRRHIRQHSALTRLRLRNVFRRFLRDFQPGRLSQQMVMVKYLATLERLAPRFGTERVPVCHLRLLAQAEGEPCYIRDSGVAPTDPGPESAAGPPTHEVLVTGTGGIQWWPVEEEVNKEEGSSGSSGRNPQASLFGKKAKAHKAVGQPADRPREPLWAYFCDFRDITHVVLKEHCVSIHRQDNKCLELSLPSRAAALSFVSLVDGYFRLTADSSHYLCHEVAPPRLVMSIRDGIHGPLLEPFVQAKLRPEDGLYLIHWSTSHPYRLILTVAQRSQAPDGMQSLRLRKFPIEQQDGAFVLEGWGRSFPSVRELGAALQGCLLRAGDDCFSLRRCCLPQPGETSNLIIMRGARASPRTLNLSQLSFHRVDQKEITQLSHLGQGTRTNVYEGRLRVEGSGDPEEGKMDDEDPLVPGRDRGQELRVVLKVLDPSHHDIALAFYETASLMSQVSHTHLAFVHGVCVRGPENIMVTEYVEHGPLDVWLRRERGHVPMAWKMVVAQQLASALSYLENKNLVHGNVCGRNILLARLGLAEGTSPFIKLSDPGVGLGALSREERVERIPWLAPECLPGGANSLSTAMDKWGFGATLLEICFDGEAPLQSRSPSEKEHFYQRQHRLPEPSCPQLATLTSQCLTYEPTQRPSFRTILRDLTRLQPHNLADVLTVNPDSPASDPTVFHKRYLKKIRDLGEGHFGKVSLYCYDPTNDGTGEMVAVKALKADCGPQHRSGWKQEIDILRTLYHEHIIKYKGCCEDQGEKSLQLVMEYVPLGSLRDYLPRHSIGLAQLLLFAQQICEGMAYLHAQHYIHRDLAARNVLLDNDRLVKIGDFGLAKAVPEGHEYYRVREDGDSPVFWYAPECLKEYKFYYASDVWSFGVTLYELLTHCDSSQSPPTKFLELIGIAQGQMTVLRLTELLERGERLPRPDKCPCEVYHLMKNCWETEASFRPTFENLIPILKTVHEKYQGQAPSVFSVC
Chain of Hepatocyte growth factor receptor (P08581 whole entry): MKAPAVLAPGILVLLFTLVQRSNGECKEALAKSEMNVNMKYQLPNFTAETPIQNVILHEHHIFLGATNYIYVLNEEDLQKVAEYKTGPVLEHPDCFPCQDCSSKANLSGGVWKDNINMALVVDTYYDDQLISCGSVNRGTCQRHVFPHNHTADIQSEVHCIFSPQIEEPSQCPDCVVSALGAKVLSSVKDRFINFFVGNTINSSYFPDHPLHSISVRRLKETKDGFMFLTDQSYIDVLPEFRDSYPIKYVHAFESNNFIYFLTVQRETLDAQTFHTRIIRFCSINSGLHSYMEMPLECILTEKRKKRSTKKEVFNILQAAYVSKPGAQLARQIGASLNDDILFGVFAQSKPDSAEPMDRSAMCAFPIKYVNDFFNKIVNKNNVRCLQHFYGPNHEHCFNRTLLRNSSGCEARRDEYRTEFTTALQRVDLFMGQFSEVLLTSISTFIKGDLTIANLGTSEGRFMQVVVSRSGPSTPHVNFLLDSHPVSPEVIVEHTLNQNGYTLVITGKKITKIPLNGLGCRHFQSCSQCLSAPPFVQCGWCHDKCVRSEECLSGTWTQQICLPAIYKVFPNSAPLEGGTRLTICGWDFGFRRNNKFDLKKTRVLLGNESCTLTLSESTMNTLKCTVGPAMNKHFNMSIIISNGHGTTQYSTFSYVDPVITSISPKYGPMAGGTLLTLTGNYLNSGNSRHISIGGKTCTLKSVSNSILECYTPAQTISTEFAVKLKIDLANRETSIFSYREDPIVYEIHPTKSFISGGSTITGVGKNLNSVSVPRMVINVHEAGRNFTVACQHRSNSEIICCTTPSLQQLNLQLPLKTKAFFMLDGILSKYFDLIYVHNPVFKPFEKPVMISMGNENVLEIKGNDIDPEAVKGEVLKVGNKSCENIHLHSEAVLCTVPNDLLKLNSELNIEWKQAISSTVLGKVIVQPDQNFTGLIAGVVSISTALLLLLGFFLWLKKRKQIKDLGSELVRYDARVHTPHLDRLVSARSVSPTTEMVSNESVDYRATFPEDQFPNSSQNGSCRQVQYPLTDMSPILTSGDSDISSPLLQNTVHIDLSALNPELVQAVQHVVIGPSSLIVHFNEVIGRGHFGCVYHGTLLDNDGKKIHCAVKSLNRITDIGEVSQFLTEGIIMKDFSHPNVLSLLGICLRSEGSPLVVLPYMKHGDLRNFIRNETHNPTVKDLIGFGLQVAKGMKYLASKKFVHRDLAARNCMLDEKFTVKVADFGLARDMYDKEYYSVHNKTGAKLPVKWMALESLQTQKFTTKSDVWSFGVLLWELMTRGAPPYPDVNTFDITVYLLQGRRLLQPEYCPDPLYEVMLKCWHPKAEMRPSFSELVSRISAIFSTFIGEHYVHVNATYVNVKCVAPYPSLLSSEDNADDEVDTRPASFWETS
Chain of Albumin (P02769 whole entry): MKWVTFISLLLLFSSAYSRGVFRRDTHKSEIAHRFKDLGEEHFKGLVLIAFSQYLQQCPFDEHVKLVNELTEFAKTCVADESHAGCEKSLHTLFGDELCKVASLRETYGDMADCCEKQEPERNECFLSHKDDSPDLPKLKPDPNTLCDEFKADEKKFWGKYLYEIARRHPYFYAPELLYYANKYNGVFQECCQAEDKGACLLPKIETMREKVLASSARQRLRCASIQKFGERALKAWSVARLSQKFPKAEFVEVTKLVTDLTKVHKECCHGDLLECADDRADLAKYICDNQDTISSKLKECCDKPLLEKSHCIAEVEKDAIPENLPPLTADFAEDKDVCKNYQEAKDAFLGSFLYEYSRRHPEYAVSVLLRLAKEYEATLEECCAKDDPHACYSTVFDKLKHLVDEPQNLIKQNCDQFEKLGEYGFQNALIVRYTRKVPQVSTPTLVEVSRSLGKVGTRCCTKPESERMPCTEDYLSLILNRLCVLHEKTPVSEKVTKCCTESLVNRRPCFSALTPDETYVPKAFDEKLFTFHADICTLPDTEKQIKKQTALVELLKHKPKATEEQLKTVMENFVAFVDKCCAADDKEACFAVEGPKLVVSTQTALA
Chain of Lymphokine-activated killer T-cell-originated protein kinase (Q96KB5 whole entry): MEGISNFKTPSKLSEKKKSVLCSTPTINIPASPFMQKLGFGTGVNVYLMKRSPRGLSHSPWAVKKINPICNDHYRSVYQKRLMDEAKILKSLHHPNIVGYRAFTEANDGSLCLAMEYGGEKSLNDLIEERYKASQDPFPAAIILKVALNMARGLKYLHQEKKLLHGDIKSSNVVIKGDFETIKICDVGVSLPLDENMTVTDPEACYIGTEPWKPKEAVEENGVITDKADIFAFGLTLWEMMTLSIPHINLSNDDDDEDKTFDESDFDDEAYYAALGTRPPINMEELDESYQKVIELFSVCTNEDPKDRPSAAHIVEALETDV
Chain of Cyclin-dependent kinase 8 (P49336 whole entry): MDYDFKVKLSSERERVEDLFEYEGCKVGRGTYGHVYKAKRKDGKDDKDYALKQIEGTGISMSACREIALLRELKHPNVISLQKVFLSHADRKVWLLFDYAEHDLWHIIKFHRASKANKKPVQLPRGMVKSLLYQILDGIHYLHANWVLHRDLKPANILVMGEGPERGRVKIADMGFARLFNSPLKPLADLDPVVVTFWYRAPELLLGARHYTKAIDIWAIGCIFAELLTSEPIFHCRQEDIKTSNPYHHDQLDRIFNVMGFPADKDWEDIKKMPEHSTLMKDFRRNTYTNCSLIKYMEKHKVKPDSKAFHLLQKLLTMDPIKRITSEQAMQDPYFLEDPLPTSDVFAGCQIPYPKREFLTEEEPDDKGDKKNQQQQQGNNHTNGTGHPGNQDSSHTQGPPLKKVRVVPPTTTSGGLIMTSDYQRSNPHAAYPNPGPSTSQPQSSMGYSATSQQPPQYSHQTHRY

Ki [1]: 1.58 µM (active)
Ki [2]: > 2 µM (inactive)
Ki [3]: > 10 µM (inactive)
Ki [4]: > 7.94 µM (inactive)
Ki [5]: > 10 µM (inactive)
Ki [7]: > 1.58 µM (inactive)
Ki (LIM domain kinase 1): 2.51 µM (active)
Ki [8]: > 7.94 µM (inactive)
Ki [9]: > 2 µM (inactive)
Ki [10]: > 12.6 µM (inactive)
Ki [11]: > 10 µM (inactive)
Ki [12]: > 7.94 µM (inactive)
Ki [13]: 0.501 µM (active)
Ki [14]: > 2 µM (inactive)
Ki [16]: 6.31 µM (active)
Compound: Nc1noc2cccc(-c3cccc(O)c3)c12
Ki [6]: > 25.1 µM (inactive)
Ki [15]: > 10 µM (inactive)

Compound: O=C1NC(=S)S/C1=C\C=C\c1ccc([N+](=O)[O-])o1
IC50 (Albumin): > 94.1 µM (inactive)

Compound: CN(C)S(=O)(=O)Oc1cccc(C(=O)Nc2ccc(Cl)c(Cl)c2)c1
AC50 [17]: 8.64 µM (active)

IC50 [18]: 12.8 µM (active)
Compound: O=C(NN1C(=O)CSC1=S)C(=O)NN1C(=O)CSC1=S
